Source: the supplement of paper PMC4862054

Test system: MCF-10A
Assay: normalised response (% of control), CellTiter-Glo; higher = more viable cells (100 = DMSO, 0 = benzethonium chloride kill control)
Settings: incubation time: 72 h
Method: (§1)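 DSRT, 72 h incubation, CellTox Green / CellTiter-Glo readout. Signal is normalised to DMSO and benzethonium chloride controls. Value is the normalised response at the highest dose.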

Compound	normalised response [%]
COc1cc(O)c2c(c1)/C=C/C[C@H](O)[C@H](O)C(=O)/C=C\C[C@H](C)OC2=O [(5Z)-7-Oxozeaenol] (10000 nM)	34.5
CNC(=O)c1cccc(-c2ccc3c(N4CCOC[C@@H]4C)nc(N4CCOC[C@@H]4C)nc3n2)c1 [AZD2014] (10000 nM)	33.9
Nc1cc(C(F)(F)F)c(-c2cc(N3CCOCC3)nc(N3CCOCC3)n2)cn1 [Buparlisib] (10000 nM)	36
CNC(=O)c1ccc(N2C(=S)N(c3ccc(C#N)c(C(F)(F)F)c3)C(=O)C2(C)C)cc1F [Enzalutamide] (10000 nM)	93.4
CCOC(=O)CCNc1cc(N2CCc3ccccc3CC2)nc(-c2ccccn2)n1 [GSK-J4] (100000 nM)	0.14
Cc1cc(Nc2cc(CN3CCOCC3)c3nc(C)c(Cc4ccc(Cl)cc4F)n3n2)n[nH]1 [Gandotinib] (10000 nM)	41.2
CNC(=O)c1ccc(N2C(=S)N(c3ccc(C#N)c(C(F)(F)F)c3)C(=O)C23CCC3)cc1F [RD162] (10000 nM)	102
S=P(N1CC1)(N1CC1)N1CC1 [Thio-TEPA] (50000 nM)	104

Test system: BT-474
Assay: as above
Settings: incubation time: 72 h
Method: as §1

Compound	normalised response [%]
CCn1c(-c2nonc2N)nc2cnc(Oc3cccc(NC(=O)c4ccc(OCCN5CCOCC5)cc4)c3)cc21 (10000 nM)	66
COc1cc(O)c2c(c1)/C=C/C[C@H](O)[C@H](O)C(=O)/C=C\C[C@H](C)OC2=O [(5Z)-7-Oxozeaenol] (10000 nM)	14
CNC(=O)c1cccc(-c2ccc3c(N4CCOC[C@@H]4C)nc(N4CCOC[C@@H]4C)nc3n2)c1 [AZD2014] (10000 nM)	49.6
Nc1cc(C(F)(F)F)c(-c2cc(N3CCOCC3)nc(N3CCOCC3)n2)cn1 [Buparlisib] (10000 nM)	15.8
CNC(=O)c1ccc(N2C(=S)N(c3ccc(C#N)c(C(F)(F)F)c3)C(=O)C2(C)C)cc1F [Enzalutamide] (10000 nM)	94.3
CCOC(=O)CCNc1cc(N2CCc3ccccc3CC2)nc(-c2ccccn2)n1 [GSK-J4] (100000 nM)	0.77
Cc1cc(Nc2cc(CN3CCOCC3)c3nc(C)c(Cc4ccc(Cl)cc4F)n3n2)n[nH]1 [Gandotinib] (10000 nM)	44.5
CNC(=O)c1ccc(N2C(=S)N(c3ccc(C#N)c(C(F)(F)F)c3)C(=O)C23CCC3)cc1F [RD162] (10000 nM)	89.8
S=P(N1CC1)(N1CC1)N1CC1 [Thio-TEPA] (50000 nM)	91.7

Test system: MDA-MB-453
Assay: as above
Settings: incubation time: 72 h
Method: as §1

Compound	normalised response [%]
CCn1c(-c2nonc2N)nc2cnc(Oc3cccc(NC(=O)c4ccc(OCCN5CCOCC5)cc4)c3)cc21 (10000 nM)	72.2
COc1cc(O)c2c(c1)/C=C/C[C@H](O)[C@H](O)C(=O)/C=C\C[C@H](C)OC2=O [(5Z)-7-Oxozeaenol] (10000 nM)	38.5
CNC(=O)c1cccc(-c2ccc3c(N4CCOC[C@@H]4C)nc(N4CCOC[C@@H]4C)nc3n2)c1 [AZD2014] (10000 nM)	33
Nc1cc(C(F)(F)F)c(-c2cc(N3CCOCC3)nc(N3CCOCC3)n2)cn1 [Buparlisib] (10000 nM)	75.6
CNC(=O)c1ccc(N2C(=S)N(c3ccc(C#N)c(C(F)(F)F)c3)C(=O)C2(C)C)cc1F [Enzalutamide] (10000 nM)	88.5
CCOC(=O)CCNc1cc(N2CCc3ccccc3CC2)nc(-c2ccccn2)n1 [GSK-J4] (100000 nM)	-0.16
Cc1cc(Nc2cc(CN3CCOCC3)c3nc(C)c(Cc4ccc(Cl)cc4F)n3n2)n[nH]1 [Gandotinib] (10000 nM)	120
CNC(=O)c1ccc(N2C(=S)N(c3ccc(C#N)c(C(F)(F)F)c3)C(=O)C23CCC3)cc1F [RD162] (10000 nM)	91.8
S=P(N1CC1)(N1CC1)N1CC1 [Thio-TEPA] (50000 nM)	111

Test system: HCC1937
Assay: as above
Settings: incubation time: 72 h
Method: as §1

Compound	normalised response [%]
CCn1c(-c2nonc2N)nc2cnc(Oc3cccc(NC(=O)c4ccc(OCCN5CCOCC5)cc4)c3)cc21 (10000 nM)	76.6
COc1cc(O)c2c(c1)/C=C/C[C@H](O)[C@H](O)C(=O)/C=C\C[C@H](C)OC2=O [(5Z)-7-Oxozeaenol] (10000 nM)	32.5
CNC(=O)c1cccc(-c2ccc3c(N4CCOC[C@@H]4C)nc(N4CCOC[C@@H]4C)nc3n2)c1 [AZD2014] (10000 nM)	42.3
Nc1cc(C(F)(F)F)c(-c2cc(N3CCOCC3)nc(N3CCOCC3)n2)cn1 [Buparlisib] (10000 nM)	36.2
CNC(=O)c1ccc(N2C(=S)N(c3ccc(C#N)c(C(F)(F)F)c3)C(=O)C2(C)C)cc1F [Enzalutamide] (10000 nM)	92.7
CCOC(=O)CCNc1cc(N2CCc3ccccc3CC2)nc(-c2ccccn2)n1 [GSK-J4] (100000 nM)	0.08
Cc1cc(Nc2cc(CN3CCOCC3)c3nc(C)c(Cc4ccc(Cl)cc4F)n3n2)n[nH]1 [Gandotinib] (10000 nM)	64.2
CNC(=O)c1ccc(N2C(=S)N(c3ccc(C#N)c(C(F)(F)F)c3)C(=O)C23CCC3)cc1F [RD162] (10000 nM)	93.8
S=P(N1CC1)(N1CC1)N1CC1 [Thio-TEPA] (50000 nM)	93

Test system: CAL-120
Assay: as above
Settings: incubation time: 72 h
Method: as §1

Compound	normalised response [%]
CCn1c(-c2nonc2N)nc2cnc(Oc3cccc(NC(=O)c4ccc(OCCN5CCOCC5)cc4)c3)cc21 (10000 nM)	58.5
COc1cc(O)c2c(c1)/C=C/C[C@H](O)[C@H](O)C(=O)/C=C\C[C@H](C)OC2=O [(5Z)-7-Oxozeaenol] (10000 nM)	41.3
CNC(=O)c1cccc(-c2ccc3c(N4CCOC[C@@H]4C)nc(N4CCOC[C@@H]4C)nc3n2)c1 [AZD2014] (10000 nM)	23.6
Nc1cc(C(F)(F)F)c(-c2cc(N3CCOCC3)nc(N3CCOCC3)n2)cn1 [Buparlisib] (10000 nM)	56.3
CNC(=O)c1ccc(N2C(=S)N(c3ccc(C#N)c(C(F)(F)F)c3)C(=O)C2(C)C)cc1F [Enzalutamide] (10000 nM)	97.5
CCOC(=O)CCNc1cc(N2CCc3ccccc3CC2)nc(-c2ccccn2)n1 [GSK-J4] (100000 nM)	0.19
Cc1cc(Nc2cc(CN3CCOCC3)c3nc(C)c(Cc4ccc(Cl)cc4F)n3n2)n[nH]1 [Gandotinib] (10000 nM)	27.9
CNC(=O)c1ccc(N2C(=S)N(c3ccc(C#N)c(C(F)(F)F)c3)C(=O)C23CCC3)cc1F [RD162] (10000 nM)	101
S=P(N1CC1)(N1CC1)N1CC1 [Thio-TEPA] (50000 nM)	97.2

Test system: MDA-MB-468
Assay: as above
Settings: incubation time: 72 h
Method: as §1

Compound	normalised response [%]
CCn1c(-c2nonc2N)nc2cnc(Oc3cccc(NC(=O)c4ccc(OCCN5CCOCC5)cc4)c3)cc21 (10000 nM)	50.7
COc1cc(O)c2c(c1)/C=C/C[C@H](O)[C@H](O)C(=O)/C=C\C[C@H](C)OC2=O [(5Z)-7-Oxozeaenol] (10000 nM)	21.4
CNC(=O)c1cccc(-c2ccc3c(N4CCOC[C@@H]4C)nc(N4CCOC[C@@H]4C)nc3n2)c1 [AZD2014] (10000 nM)	25.6
Nc1cc(C(F)(F)F)c(-c2cc(N3CCOCC3)nc(N3CCOCC3)n2)cn1 [Buparlisib] (10000 nM)	11.3
CNC(=O)c1ccc(N2C(=S)N(c3ccc(C#N)c(C(F)(F)F)c3)C(=O)C2(C)C)cc1F [Enzalutamide] (10000 nM)	93.7
CCOC(=O)CCNc1cc(N2CCc3ccccc3CC2)nc(-c2ccccn2)n1 [GSK-J4] (100000 nM)	0.05
Cc1cc(Nc2cc(CN3CCOCC3)c3nc(C)c(Cc4ccc(Cl)cc4F)n3n2)n[nH]1 [Gandotinib] (10000 nM)	28.5
CNC(=O)c1ccc(N2C(=S)N(c3ccc(C#N)c(C(F)(F)F)c3)C(=O)C23CCC3)cc1F [RD162] (10000 nM)	93.3
S=P(N1CC1)(N1CC1)N1CC1 [Thio-TEPA] (50000 nM)	96.9

Test system: MDA-MB-231
Assay: as above
Settings: incubation time: 72 h
Method: as §1

Compound	normalised response [%]
CCn1c(-c2nonc2N)nc2cnc(Oc3cccc(NC(=O)c4ccc(OCCN5CCOCC5)cc4)c3)cc21 (10000 nM)	64.4
COc1cc(O)c2c(c1)/C=C/C[C@H](O)[C@H](O)C(=O)/C=C\C[C@H](C)OC2=O [(5Z)-7-Oxozeaenol] (10000 nM)	4.8
CNC(=O)c1cccc(-c2ccc3c(N4CCOC[C@@H]4C)nc(N4CCOC[C@@H]4C)nc3n2)c1 [AZD2014] (10000 nM)	46.2
Nc1cc(C(F)(F)F)c(-c2cc(N3CCOCC3)nc(N3CCOCC3)n2)cn1 [Buparlisib] (10000 nM)	48
CNC(=O)c1ccc(N2C(=S)N(c3ccc(C#N)c(C(F)(F)F)c3)C(=O)C2(C)C)cc1F [Enzalutamide] (10000 nM)	90.2
CCOC(=O)CCNc1cc(N2CCc3ccccc3CC2)nc(-c2ccccn2)n1 [GSK-J4] (100000 nM)	0.03
Cc1cc(Nc2cc(CN3CCOCC3)c3nc(C)c(Cc4ccc(Cl)cc4F)n3n2)n[nH]1 [Gandotinib] (10000 nM)	27.9
CNC(=O)c1ccc(N2C(=S)N(c3ccc(C#N)c(C(F)(F)F)c3)C(=O)C23CCC3)cc1F [RD162] (10000 nM)	85.1
S=P(N1CC1)(N1CC1)N1CC1 [Thio-TEPA] (50000 nM)	94.8

Test system: CAL-85-1
Assay: as above
Settings: incubation time: 72 h
Method: as §1

Compound	normalised response [%]
CCn1c(-c2nonc2N)nc2cnc(Oc3cccc(NC(=O)c4ccc(OCCN5CCOCC5)cc4)c3)cc21 (10000 nM)	87.8
COc1cc(O)c2c(c1)/C=C/C[C@H](O)[C@H](O)C(=O)/C=C\C[C@H](C)OC2=O [(5Z)-7-Oxozeaenol] (10000 nM)	13.9
CNC(=O)c1cccc(-c2ccc3c(N4CCOC[C@@H]4C)nc(N4CCOC[C@@H]4C)nc3n2)c1 [AZD2014] (10000 nM)	27.3
Nc1cc(C(F)(F)F)c(-c2cc(N3CCOCC3)nc(N3CCOCC3)n2)cn1 [Buparlisib] (10000 nM)	83.3
CNC(=O)c1ccc(N2C(=S)N(c3ccc(C#N)c(C(F)(F)F)c3)C(=O)C2(C)C)cc1F [Enzalutamide] (10000 nM)	91.7
CCOC(=O)CCNc1cc(N2CCc3ccccc3CC2)nc(-c2ccccn2)n1 [GSK-J4] (100000 nM)	0.22
Cc1cc(Nc2cc(CN3CCOCC3)c3nc(C)c(Cc4ccc(Cl)cc4F)n3n2)n[nH]1 [Gandotinib] (10000 nM)	58.8
CNC(=O)c1ccc(N2C(=S)N(c3ccc(C#N)c(C(F)(F)F)c3)C(=O)C23CCC3)cc1F [RD162] (10000 nM)	91.5
S=P(N1CC1)(N1CC1)N1CC1 [Thio-TEPA] (50000 nM)	93.7

Test system: Hs578T
Assay: as above
Settings: incubation time: 72 h
Method: as §1

Compound	normalised response [%]
CCn1c(-c2nonc2N)nc2cnc(Oc3cccc(NC(=O)c4ccc(OCCN5CCOCC5)cc4)c3)cc21 (10000 nM)	49
COc1cc(O)c2c(c1)/C=C/C[C@H](O)[C@H](O)C(=O)/C=C\C[C@H](C)OC2=O [(5Z)-7-Oxozeaenol] (10000 nM)	9.82
CNC(=O)c1cccc(-c2ccc3c(N4CCOC[C@@H]4C)nc(N4CCOC[C@@H]4C)nc3n2)c1 [AZD2014] (10000 nM)	27.4
Nc1cc(C(F)(F)F)c(-c2cc(N3CCOCC3)nc(N3CCOCC3)n2)cn1 [Buparlisib] (10000 nM)	75
CNC(=O)c1ccc(N2C(=S)N(c3ccc(C#N)c(C(F)(F)F)c3)C(=O)C2(C)C)cc1F [Enzalutamide] (10000 nM)	105
CCOC(=O)CCNc1cc(N2CCc3ccccc3CC2)nc(-c2ccccn2)n1 [GSK-J4] (100000 nM)	0.22
Cc1cc(Nc2cc(CN3CCOCC3)c3nc(C)c(Cc4ccc(Cl)cc4F)n3n2)n[nH]1 [Gandotinib] (10000 nM)	7.38
CNC(=O)c1ccc(N2C(=S)N(c3ccc(C#N)c(C(F)(F)F)c3)C(=O)C23CCC3)cc1F [RD162] (10000 nM)	101
S=P(N1CC1)(N1CC1)N1CC1 [Thio-TEPA] (50000 nM)	103

Test system: DU-4475
Assay: as above
Settings: incubation time: 72 h
Method: as §1

Compound	normalised response [%]
CCn1c(-c2nonc2N)nc2cnc(Oc3cccc(NC(=O)c4ccc(OCCN5CCOCC5)cc4)c3)cc21 (10000 nM)	80
COc1cc(O)c2c(c1)/C=C/C[C@H](O)[C@H](O)C(=O)/C=C\C[C@H](C)OC2=O [(5Z)-7-Oxozeaenol] (10000 nM)	4.88
CNC(=O)c1cccc(-c2ccc3c(N4CCOC[C@@H]4C)nc(N4CCOC[C@@H]4C)nc3n2)c1 [AZD2014] (10000 nM)	23.8
